Data: paper PMC4377976, “Bioactive Isopimarane Diterpenes from the Fungus, Epicoccum sp. HS-1, Associated with Apostichopus japonicus” (Marine Drugs, 2015)

The molecules below were run against α-glucosidase (assay: p-nitrophenyl glycoside hydrolysis assay, absorbance at […] nm).
Format: biochemical

Row | IC50 [µM] | Compound
1 | 4.6 ± 0.1 | C=C[C@@]1(C)C[C@@H](O)C2=C(C(=O)[C@@]3(O)OC[C@@]24CCCC(C)(C)[C@@]43O)[C@H]1OC [compound 1, Isopimarane diterpene (1)]
2 | 11.9 ± 0.4 | C=C[C@]1(C)C=C2[C@@H](O)[C@@]3(O)OC[C@@]4(CCCC(C)(C)[C@@]43O)[C@@]2(O)CC1 [compound 2, 11-deoxydiaporthein A]

Row | Compound | IC50 [µM]
3 | Oc1ccc(/C=C/c2cc(O)cc(O)c2)cc1 [Resveratrol, reference compound] | 31.2 ± 4.4
